Results from PMC7758046, “Novel piperazine–chalcone hybrids and related pyrazoline analogues targeting VEGFR-2 kinase; design, synthesis, molecular docking studies, and anticancer evaluation” (Journal of Enzyme Inhibition and Medicinal Chemistry, 2020).

What was measured:
Assay in all cases: NCI-60 single-dose anticancer screen
Type in all cases: cell-based, human
786-0 (Renal cancer) = conditions: 10 µM single dose
Experimental: (§1) Six compounds were selected by the NCI, according to NCI’s DTP selection guidelines, for evaluation of their anticancer activity at a single-dose of 10 µM against 60 human tumours cell lines.
(§2) In vitro cytotoxicity was performed in NCI according to reported method.

A498 (Renal cancer) = conditions: 10 µM single dose
Experimental: as §1, §2

ACHN (Renal cancer) = conditions: 10 µM single dose
Experimental: as §1, §2

BT-549 (Breast cancer) = conditions: 10 µM single dose
Experimental: as §1, §2

CAKI-1 (Renal cancer) = conditions: 10 µM single dose
Experimental: as §1, §2

CCRF-CEM (Leukaemia) = conditions: 10 µM single dose; for inhibition at 10 µM: Homo sapiens, read-out: cell growth inhibition
Experimental: as §1, §2

COLO 205 (Colon cancer) = conditions: 10 µM single dose
Experimental: as §1, §2

DU-145 (Prostate cancer) = conditions: 10 µM single dose
Experimental: as §1, §2

HCT-15 (Colon cancer) = conditions: 10 µM single dose
Experimental: as §1, §2

[1] = test system: HOP-62 (Non-small cell lung cancer); conditions: 10 µM single dose
Experimental: as §1, §2

[2] = test system: HOP-92 (Non-small cell lung cancer); conditions: 10 µM single dose; for inhibition at 10 µM: Homo sapiens, read-out: cell growth inhibition
Experimental: as §1, §2

HS 578T (Breast cancer) = conditions: 10 µM single dose
Experimental: as §1, §2

HT29 (Colon cancer) = conditions: for cell growth promotion: 10 µM single dose; for inhibition at 10 µM: Homo sapiens, HT-29, 10 µM single dose, read-out: cell growth inhibition
Experimental: as §1, §2

IGROV1 (Ovarian cancer) = conditions: 10 µM single dose
Experimental: as §1, §2

K-562 (Leukaemia) = conditions: for cell growth promotion: 10 µM single dose; for inhibition at 10 µM: Homo sapiens, K562, 10 µM single dose, read-out: cell growth inhibition
Experimental: as §1, §2

KM12 (Colon cancer) = conditions: 10 µM single dose
Experimental: as §1, §2

LOX IMVI (Melanoma) = conditions: 10 µM single dose
Experimental: as §1, §2

M14 (Melanoma) = conditions: 10 µM single dose
Experimental: as §1, §2

MALME-3M (Melanoma) = conditions: 10 µM single dose
Experimental: as §1, §2

MCF7 (Breast cancer) = conditions: 10 µM single dose
Experimental: as §1, §2

[3] = test system: MDA-MB-231/ATCC (Breast cancer); conditions: 10 µM single dose
Experimental: as §1, §2

MDA-MB-435 (Melanoma) = conditions: 10 µM single dose
Experimental: as §1, §2

[4] = test system: MDA-MB-468 (Breast cancer); conditions: 10 µM single dose
Experimental: as §1, §2

[5] = test system: NCI-H226 (Non-small cell lung cancer); conditions: 10 µM single dose
Experimental: as §1, §2

[6] = test system: NCI-H23 (Non-small cell lung cancer); conditions: 10 µM single dose
Experimental: as §1, §2

[7] = test system: NCI-H322M (Non-small cell lung cancer); conditions: 10 µM single dose
Experimental: as §1, §2

[8] = test system: NCI-H460 (Non-small cell lung cancer); conditions: 10 µM single dose
Experimental: as §1, §2

[9] = test system: NCI-H522 (Non-small cell lung cancer); conditions: 10 µM single dose
Experimental: as §1, §2

[10] = test system: NCI/ADR-RES (Ovarian cancer); conditions: 10 µM single dose
Experimental: as §1, §2

OVCAR-5 (Ovarian cancer) = conditions: 10 µM single dose
Experimental: as §1, §2

OVCAR-8 (Ovarian cancer) = conditions: 10 µM single dose
Experimental: as §1, §2

PC-3 (Prostate cancer) = conditions: 10 µM single dose
Experimental: as §1, §2

RPMI-8226 (Leukaemia) = conditions: 10 µM single dose
Experimental: as §1, §2

RXF 393 (Renal cancer) = conditions: 10 µM single dose
Experimental: as §1, §2

SF-268 (CNS cancer) = conditions: 10 µM single dose
Experimental: as §1, §2

SF-295 (CNS cancer) = conditions: 10 µM single dose
Experimental: as §1, §2

SK-MEL-2 (Melanoma) = conditions: 10 µM single dose
Experimental: as §1, §2

SK-MEL-28 (Melanoma) = conditions: 10 µM single dose
Experimental: as §1, §2

SN12C (Renal cancer) = conditions: 10 µM single dose
Experimental: as §1, §2

SNB-75 (CNS cancer) = conditions: 10 µM single dose
Experimental: as §1, §2

SR (Leukaemia) = conditions: 10 µM single dose; for inhibition at 10 µM: Homo sapiens, read-out: cell growth inhibition
Experimental: as §1, §2

SW-620 (Colon cancer) = conditions: 10 µM single dose
Experimental: as §1, §2

T-47D (Breast cancer) = conditions: 10 µM single dose
Experimental: as §1, §2

TK-10 (Renal cancer) = conditions: 10 µM single dose
Experimental: as §1, §2

U251 (CNS cancer) = conditions: 10 µM single dose
Experimental: as §1, §2

UACC-257 (Melanoma) = conditions: 10 µM single dose
Experimental: as §1, §2

UO-31 (Renal cancer) = conditions: 10 µM single dose
Experimental: as §1, §2

[11] = Homo sapiens, read-out: cell growth inhibition

For `N#Cc1ccccc1C1CC(c2ccc(N3CCNCC3)cc2)=NN1` (stereo not shown) [VIa, 2-(3-(4-(Piperazin-1-yl)phenyl)-4,5-dihydro-1H-pyrazol-5-yl)benzonitrile], the cell growth promotion (786-0 (Renal cancer)) was 106.73%, the cell growth promotion (A498 (Renal cancer)) was 93.08% and the cell growth promotion (ACHN (Renal cancer)) was 104.24%. The cell growth promotion (BT-549 (Breast cancer)) was 96.87%, the cell growth promotion (CAKI-1 (Renal cancer)) was 83.12% and the cell growth promotion (CCRF-CEM (Leukaemia)) was 71.21%. It also gave an inhibition at 10 µM (CCRF-CEM (Leukaemia)) of 28.8%, a cell growth promotion (COLO 205 (Colon cancer)) of 113.04% and a cell growth promotion (DU-145 (Prostate cancer)) of 104.00%. For the same compound, the cell growth promotion (HCT-15 (Colon cancer)) was 112.02%, the cell growth promotion [1] was 86.44% and the cell growth promotion [2] was 83.18%. It also gave an inhibition at 10 µM [2] of 16.8%, a cell growth promotion (HS 578T (Breast cancer)) of 91.67% and a cell growth promotion (HT29 (Colon cancer)) of 87.83%. For the same compound, the inhibition at 10 µM (HT29 (Colon cancer)) was 12.2%, the cell growth promotion (IGROV1 (Ovarian cancer)) was 93.22% and the cell growth promotion (K-562 (Leukaemia)) was 78.12%. It also gave an inhibition at 10 µM (K-562 (Leukaemia)) of 21.9%, a cell growth promotion (KM12 (Colon cancer)) of 97.48% and a cell growth promotion (LOX IMVI (Melanoma)) of 99.03%. For the same compound, the cell growth promotion (M14 (Melanoma)) was 104.47%, the cell growth promotion (MALME-3M (Melanoma)) was 106.87% and the cell growth promotion (MCF7 (Breast cancer)) was 93.05%. For the same compound, the cell growth promotion [3] was 95.96%, the cell growth promotion (MDA-MB-435 (Melanoma)) was 102.57% and the cell growth promotion [4] was 101.01%. The cell growth promotion [5] was 93.10%, the cell growth promotion [6] was 91.73% and the cell growth promotion [7] was 98.35%. It also gave a cell growth promotion [8] of 101.50%, a cell growth promotion [9] of 69.51% and an inhibition at 10 µM [9, 11] of 30.5%. The cell growth promotion [10] was 102.72%, the cell growth promotion (OVCAR-5 (Ovarian cancer)) was 113.63% and the cell growth promotion (OVCAR-8 (Ovarian cancer)) was 90.36%. For the same compound, the cell growth promotion (PC-3 (Prostate cancer)) was 83.35%, the cell growth promotion (RPMI-8226 (Leukaemia)) was 88.98% and the cell growth promotion (RXF 393 (Renal cancer)) was 108.30%. It also gave a cell growth promotion (SF-268 (CNS cancer)) of 100.24%, a cell growth promotion (SF-295 (CNS cancer)) of 103.66% and a cell growth promotion (SK-MEL-2 (Melanoma)) of 94.51%. The cell growth promotion (SK-MEL-28 (Melanoma)) was 114.17%, the cell growth promotion (SN12C (Renal cancer)) was 98.09% and the cell growth promotion (SNB-75 (CNS cancer)) was 90.58%. It also gave a cell growth promotion (SR (Leukaemia)) of 94.43%, an inhibition at 10 µM (SR (Leukaemia)) of 5.57% and a cell growth promotion (SW-620 (Colon cancer)) of 94.11%. For the same compound, the cell growth promotion (T-47D (Breast cancer)) was 89.99%, the cell growth promotion (TK-10 (Renal cancer)) was 130.17% and the cell growth promotion (U251 (CNS cancer)) was 94.54%. The cell growth promotion (UACC-257 (Melanoma)) was 85.21% and the cell growth promotion (UO-31 (Renal cancer)) was 86.28%.
With `O=C(C=Cc1ccncc1F)c1ccc(N2CCNCC2)cc1` [Vf, 3-(3-Fluoropyridin-4-yl)-1-(4-(piperazin-1-yl)phenyl)prop-2-en-1-one] the cell growth promotion (786-0 (Renal cancer)) was 103.38%, the cell growth promotion (A498 (Renal cancer)) was 97.22% and the cell growth promotion (ACHN (Renal cancer)) was 113.06%. The cell growth promotion (BT-549 (Breast cancer)) was 90.81%, the cell growth promotion (CAKI-1 (Renal cancer)) was 86.18% and the cell growth promotion (CCRF-CEM (Leukaemia)) was 78.16%. It also gave an inhibition at 10 µM (CCRF-CEM (Leukaemia)) of 21.8%, a cell growth promotion (COLO 205 (Colon cancer)) of 111.89% and a cell growth promotion (DU-145 (Prostate cancer)) of 108.14%. The cell growth promotion (HCT-15 (Colon cancer)) was 111.39%, the cell growth promotion [1] was 102.01% and the cell growth promotion [2] was 82.34%. For the same compound, the inhibition at 10 µM [2] was 17.7%, the cell growth promotion (HS 578T (Breast cancer)) was 99.19% and the cell growth promotion (HT29 (Colon cancer)) was 86.42%. The inhibition at 10 µM (HT29 (Colon cancer)) was 13.8%, the cell growth promotion (IGROV1 (Ovarian cancer)) was 97.17% and the cell growth promotion (K-562 (Leukaemia)) was 85.84%. The inhibition at 10 µM (K-562 (Leukaemia)) was 14.2%, the cell growth promotion (KM12 (Colon cancer)) was 105.34% and the cell growth promotion (LOX IMVI (Melanoma)) was 103.22%. The cell growth promotion (M14 (Melanoma)) was 95.53%, the cell growth promotion (MALME-3M (Melanoma)) was 99.98% and the cell growth promotion (MCF7 (Breast cancer)) was 99.38%. For the same compound, the inhibition at 10 µM (MCF7 (Breast cancer); [11]) was 0.62%, the cell growth promotion [3] was 98.76% and the cell growth promotion (MDA-MB-435 (Melanoma)) was 102.37%. For the same compound, the cell growth promotion [4] was 100.32%, the cell growth promotion [5] was 99.71% and the cell growth promotion [6] was 102.52%. The cell growth promotion [7] was 96.26%, the cell growth promotion [8] was 106.01% and the cell growth promotion [9] was 78.82%. For the same compound, the cell growth promotion [10] was 107.53%, the cell growth promotion (OVCAR-5 (Ovarian cancer)) was 111.84% and the cell growth promotion (OVCAR-8 (Ovarian cancer)) was 95.35%. It also gave a cell growth promotion (PC-3 (Prostate cancer)) of 73.56%, a cell growth promotion (RPMI-8226 (Leukaemia)) of 97.33% and a cell growth promotion (RXF 393 (Renal cancer)) of 97.78%. For the same compound, the cell growth promotion (SF-268 (CNS cancer)) was 100.92%, the cell growth promotion (SF-295 (CNS cancer)) was 101.95% and the cell growth promotion (SK-MEL-2 (Melanoma)) was 91.63%. It also gave a cell growth promotion (SK-MEL-28 (Melanoma)) of 115.56%, a cell growth promotion (SN12C (Renal cancer)) of 99.00% and a cell growth promotion (SNB-75 (CNS cancer)) of 89.08%. It also gave a cell growth promotion (SR (Leukaemia)) of 92.99%, an inhibition at 10 µM (SR (Leukaemia)) of 7.01% and a cell growth promotion (SW-620 (Colon cancer)) of 105.59%. For the same compound, the cell growth promotion (T-47D (Breast cancer)) was 118.12%, the cell growth promotion (TK-10 (Renal cancer)) was 95.83% and the cell growth promotion (U251 (CNS cancer)) was 95.03%. For the same compound, the cell growth promotion (UACC-257 (Melanoma)) was 70.86% and the cell growth promotion (UO-31 (Renal cancer)) was 89.78%.
